Assays:
[1] = target: T1, Amine oxidase [flavin-containing] A (Homo sapiens, UniProt P21397); conditions: read-out: INH
T1 sequence (P21397 whole entry): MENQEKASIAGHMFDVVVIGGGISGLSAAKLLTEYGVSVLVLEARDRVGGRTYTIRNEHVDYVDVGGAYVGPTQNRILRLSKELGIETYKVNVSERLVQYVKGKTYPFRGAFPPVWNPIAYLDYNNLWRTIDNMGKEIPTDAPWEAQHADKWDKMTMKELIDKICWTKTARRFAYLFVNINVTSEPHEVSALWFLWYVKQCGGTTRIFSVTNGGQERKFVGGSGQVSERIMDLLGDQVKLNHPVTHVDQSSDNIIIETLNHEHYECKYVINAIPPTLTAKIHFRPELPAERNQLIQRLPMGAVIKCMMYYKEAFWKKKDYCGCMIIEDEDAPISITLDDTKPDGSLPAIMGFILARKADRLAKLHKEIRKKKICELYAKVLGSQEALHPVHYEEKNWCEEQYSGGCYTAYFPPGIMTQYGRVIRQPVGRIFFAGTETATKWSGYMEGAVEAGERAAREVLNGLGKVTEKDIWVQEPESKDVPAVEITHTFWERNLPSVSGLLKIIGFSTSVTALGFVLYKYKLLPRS
Description: Inhibition of human recombinant MAOA before repeated washing at 500 uM

[2] = target: T1, Amine oxidase [flavin-containing] A; conditions: read-out: INH; remark: listed apart in the source
Description: Inhibition of human recombinant MAOA after washing at 500 uM by centrifugation-ultrafiltration method

In the case of O=C(NCCN1CCOCC1)c1ccc(Cl)cc1 [MOCLOBEMIDE], the inhibition at 500 µM [1] is reported as 86.8% and the inhibition at 500 µM [2] is reported as 10.3%.
